Source: patent publication US4533675A (priority 1984, dated 1985)
Where two headings read alike, the source gives them in different places.

Legend:
[1] = LD50 in mice after ip injection; type: in vivo
tubulin protein = experiment: Tubulin binding in vitro
[2] = ip injection, data from Brossi et al., J. Med. Chem., 26:1365 (1983); cited from earlier work

SMILES: COc1cc2c(c(OC)c1OC)-c1ccc(SC)c(=O)cc1[C@@H](NC(=O)Oc1ccccc1)CC2 [Ph H SMe, N-Phenoxycarbonyl-deacetylthiocolchicine]
- LD50 ([1]; mouse, in vivo, read-out: LD50 in Mice after ip inj): 50 mg/kg

SMILES: CCOC(=O)N[C@H]1CCc2cc(OC)c(OC)c(OC)c2-c2ccc(SC)c(=O)cc21 [Et H SMe]
- LD50 in Mice after ip inj [1]: 77.1 mg/kg
- Tubulin Binding in vitro (tubulin protein): 96

SMILES: COc1cc2c(c(OC)c1OC)-c1ccc(OC)c(=O)cc1[C@@H](NC(C)=O)CC2 [Colchicine, colchicine]
- LD50 in Mice after ip inj [2]: 3.0 mg/kg
